Reference: PubChem BioAssay AID1918948 (Molecular Pharmacology Branch, DTP, NCI, 2023)
Where “and” joins values, the source holds several entries; their conditions need not be identical. Equal values may be shown once. Values belong to the compound of their own block, whether it stands above or below them.

Test system: K-562 leukemia growth, % test/control
Assay: Anticancer human tumor K-562 cell line growth inhibition;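 note: spheroids exposed to compounds for 7 days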;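 for viability, T/C: 100% = DMSO vehicle wells and lower values mean fewer viable cells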
Settings: spheroids with HUVEC and MSC; for viability, T/C: stronger effect = lower value
Source text: Multicellular complex tumor spheroid response to LSD1 Inhibitor Iadademstat in combination with a variety of drugs and investigational agents in selected tumor cell lines
The current study was undertaken to assess response to LSD1 inhibitors in combination with standard-of-care drugs and investigational agents in solid tumor complex spheroid models as well as in the K-562 leukemia. Complex spheroids include a stromal component modeled by human endothelial cells (HUVEC) and fibroblasts modeled by human mesenchymal stem cells (MSCs). The concentration ranges selected for each drug and investigational agent were based upon clinically achievable concentrations if the clinical Cmax of the agent was known.
Compounds. The drugs and investigational agents used in this study are listed on Table 1. All of the agents used, including staurosporine (NSC755774) and gemcitabine (NSC613327), were obtained from the Developmental Therapeutics Program, NCI. FDA-approved anticancer drugs are available from the NCI at http://dtp.nci.nih.gov/branches/dscb/oncology_drugset_explanation.html. Drugs and investigational agents were >95% pure by proton nuclear magnetic resonance (NMR) and liquid chromatography/mass spectrometry (LC/MS). Stock solutions were prepared at 400x in DMSO, stored at -70 degrees C, and diluted in fresh medium prior to their use. The final concentration of DMSO in cell culture wells never exceeded 0.25% (v/v). The FDA-approved anticancer drug set is available from the Developmental Therapeutics Program at https://dtp.cancer.gov/organization/dscb/obtaining/available_plates.htm. All drugs and investigational agents were tested over a range starting from a high concentration at or near the clinical Cmax and decreasing in half-log increments. If the clinical Cmax for an agent had not been determined, the highest concentration tested was 10 microM.
Cell Lines. The patient-derived cancer cell (PDC) lines: 292921-168-R-J2-PDC, K24384-001-R-PDC, and 521955-158-R2-J5-PDC pancreatic carcinomas, 556581-035-R-J1 ovarian carcinoma, 324938-238-R-J1-PDC, 855422-203-R-J1-PDC and 883617-216-R-J1-PDC urothelial bladder carcinomas, 743489-274-T-PDC renal cell carcinoma, 138582-R-J1 Merkel cell tumor, K60290-347-R-J1 and K57222-313-R-J1-PDC glioblastomas, 653999-131-R-J2-PDC, LG0703-F948-PDC, and 349418-098-R-PDC non-small cell lung carcinomas, 885512-296-R-J2-PDC, 171881-019-R-J1-PDC breast carcinomas and 186277-243-T-J2-PDC and 233499-124-R-J2-PDC colon carcinomas were obtained from the NCI Patient-Derived Models Repository (PDMR, https://pdmr.cancer.gov). The established cell lines NCI/ADR-RES (RRID:CVCL_14520 and OVCAR-5 (RRID:CVCL_1628) ovarian carcinomas, 786-O (RRID:CVCL_1051) and A498 (RRID:CVCL_A498) renal cell carcinoma, NCI-H211 (ATCC, cat. CRL-5824; RRID:CVCL_1529), NCI-H196 (ATCC, cat. CRL-5823, RRID:CVCL_1509), SW 1271 (ATCC, cat. CRL-2177, RRID:CVCL_1716) and NCI-H1876 (ATCC, cat. CRL-5902, RRID:CVCL_1503) small cell lung carcinomas, MDA-MB-231 (RRID:CVCL_0062) and MDA-MB-468 (RRID:CVCL_0419)breast carcinomas (10-12). Pooled donor human umbilical vein endothelial cells (HUVEC, Lonza, cat. CC-2519) and human mesenchymal stem cells (hMSC, Lonza, cat. PT-2501) were purchased from Lonza (Walkersville, MD).
Cell Culture. All cells were maintained in an incubator at 37 degrees C and 5% CO2 with 95% humidity. The PDC lines were cultured according to standard operating procedures established by the NCI PDMR (https://pdmr.cancer.gov). Briefly all PDCs were thawed and cultured in Matrigel-coated flasks prepared with a working solution of 1X Ham's F-12 nutrient mix, without supplementation (Invitrogen, Waltham, MA, cat. 11765054), 100 U/mL penicillin-streptomycin (Invitrogen, cat. 15140122), and 2.5% Matrigel (Corning Inc., Corning, NY, cat. 354248) for the first three passages. […]

SMILES: CCN(c1cc(-c2ccc(CN3CCOCC3)cc2)cc(C(=O)NCc2c(C)cc(C)[nH]c2=O)c1C)C1CCOCC1 + NC1CCC(NC2CC2c2ccccc2)CC1
IC50 (curve of first compound, second compound 0.1 µM): > 3 µM
IC50 (curve of first compound, second compound 0.316 µM): > 3 µM
IC50 (curve of first compound, second compound 1 µM): > 3 µM
IC50 (curve of first compound, second compound 3.16 µM): > 3 µM
IC50 (curve of first compound, second compound 10 µM): 2.22 µM
viability, T/C (second compound 0.1 µM, first compound 0.00949 µM): 112%
viability, T/C (second compound 0.1 µM, first compound 0.03 µM): 107%
viability, T/C (second compound 0.1 µM, first compound 0.0949 µM): 106%
viability, T/C (second compound 0.1 µM, first compound 0.3 µM): 106%
viability, T/C (second compound 0.1 µM, first compound 0.949 µM): 106%
viability, T/C (second compound 0.1 µM, first compound 3 µM): 98.8%
viability, T/C (second compound 0.316 µM, first compound 0.00949 µM): 112%
viability, T/C (second compound 0.316 µM, first compound 0.03 µM): 109%
viability, T/C (second compound 0.316 µM, first compound 0.0949 µM): 107%
viability, T/C (second compound 0.316 µM, first compound 0.3 µM): 108%
viability, T/C (second compound 0.316 µM, first compound 0.949 µM): 105%
viability, T/C (second compound 0.316 µM, first compound 3 µM): 101%
viability, T/C (second compound 1 µM, first compound 0.00949 µM): 113%
viability, T/C (second compound 1 µM, first compound 0.03 µM): 112%
viability, T/C (second compound 1 µM, first compound 0.0949 µM): 106%
viability, T/C (second compound 1 µM, first compound 0.3 µM): 109%
viability, T/C (second compound 1 µM, first compound 0.949 µM): 105%
viability, T/C (second compound 1 µM, first compound 3 µM): 99.5%
viability, T/C (second compound 3.16 µM, first compound 0.00949 µM): 113%
viability, T/C (second compound 3.16 µM, first compound 0.03 µM): 110%
viability, T/C (second compound 3.16 µM, first compound 0.0949 µM): 107%
viability, T/C (second compound 3.16 µM, first compound 0.3 µM): 106%
viability, T/C (second compound 3.16 µM, first compound 0.949 µM): 104%
viability, T/C (second compound 3.16 µM, first compound 3 µM): 95%
viability, T/C (second compound 10 µM, first compound 0.00949 µM): 103%
viability, T/C (second compound 10 µM, first compound 0.03 µM): 101%
viability, T/C (second compound 10 µM, first compound 0.0949 µM): 93.7%
viability, T/C (second compound 10 µM, first compound 0.3 µM): 86%
viability, T/C (second compound 10 µM, first compound 0.949 µM): 69.4%
viability, T/C (second compound 10 µM, first compound 3 µM): 42.9%

IC50 (curve of compound): > 0.1 µM
SMILES: Cn1ncnc1C1c2n[nH]c(=O)c3cc(F)cc(c23)NC1c1ccc(F)cc1 (configuration not stated)
viability, T/C (compound 0.000316 µM): 104% and 106%
viability, T/C (compound 0.001 µM): 95.2% and 105%
viability, T/C (compound 0.00316 µM): 98.8% and 96.9%
viability, T/C (compound 0.01 µM): 98.7% and 102%
viability, T/C (compound 0.0316 µM): 99.4% and 102%
viability, T/C (compound 0.1 µM): 96.7% and 97.5%
